For 1 compound, IC50 results are on record in paper PMC7938330 (Toxicology in vitro : an international journal published in …, 2020).

In the test the target is Complex V (ATP synthase complex) (Bos taurus, UniProt P00829+P05631+P19483). The test is described as follows: immunocapture-based OXPHOS activity assay. In kind it is biochemical.

In turn, `C1CCC(C(CC2CCCCN2)C2CCCCC2)CC1` (stereo not shown) [perhexiline] displayed a concentration for half-maximal inhibition (IC50) of 10 nM.

As usually defined, the IC50 is the midpoint of a concentration-inhibition curve.
